In the supplement of paper PMC11061612:

Assays:
RVH-421 (Melanoma) [1] = test: Bliss excess, mean over the matrix (fraction); higher = more synergy
Procedure, shortened: (§1)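 Bliss excess equals the observed combination effect minus the expected value EA + EB − EA·EB, where EA and EB are the effects of each agent alone. Combination Emax is the second-highest inhibition within the matrix. Inhibition was scaled from CellTiter-Glo 2.0 luminescence, with 0 set by vehicle wells and 1 by blank wells, after 72 hours of two-drug dosing of cells plated in 1536-well plates.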

[2] = system: ATN-1 (T-Lymphoblastic Leukemia); test: combination Emax (second highest fraction inhibited in the dose matrix, 72 h); higher = more inhibition; extreme values may be limits of the assay
Procedure, shortened: as §1

[3] = system: BC-1 (B-Cell Non-Hodgkin's Lymphoma); test: as above
Procedure, shortened: as §1

C32 (Melanoma) = test: as above
Procedure, shortened: as §1

[4] = system: CAL-85-1 (Breast Carcinoma); test: as above
Procedure, shortened: as §1

DK-MG (Glioblastoma) = test: as above
Procedure, shortened: as §1

[5] = system: Daudi (Burkitt's Lymphoma); test: as above
Procedure, shortened: as §1

HT-144 (Melanoma) = test: as above
Procedure, shortened: as §1

[6] = system: JJN-3 (Plasma Cell Myeloma); test: as above
Procedure, shortened: as §1

MG-63 (Osteosarcoma) = test: as above
Procedure, shortened: as §1

[7] = system: NCI-H1048 (Small Cell Lung Carcinoma); test: as above
Procedure, shortened: as §1

[8] = system: NCI-H1648 (Lung Adenocarcinoma); test: as above
Procedure, shortened: as §1

[9] = system: NCI-H1944 (Lung Adenocarcinoma); test: as above
Procedure, shortened: as §1

RVH-421 (Melanoma) [10] = test: as above
Procedure, shortened: as §1

[11] = system: SBC-3 (Small Cell Lung Carcinoma); test: as above
Procedure, shortened: as §1

SK-MEL-24 (Melanoma) = test: as above
Procedure, shortened: as §1

[12] = system: SW1463 (Colorectal Carcinoma); test: as above
Procedure, shortened: as §1

[13] = system: TK (B-Cell Non-Hodgkin's Lymphoma); test: as above
Procedure, shortened: as §1

SMILES	Bliss excess (RVH-421 (Melanoma) [1])	combination Emax [2]	combination Emax [3]	combination Emax (C32 (Melanoma))	combination Emax [4]	combination Emax (DK-MG (Glioblastoma))	combination Emax [5]	combination Emax (HT-144 (Melanoma))	combination Emax [6]	combination Emax (MG-63 (Osteosarcoma))	combination Emax [7]	combination Emax [8]	combination Emax [9]	combination Emax (RVH-421 (Melanoma) [10])	combination Emax [11]	combination Emax (SK-MEL-24 (Melanoma))	combination Emax [12]	combination Emax [13]
CCN(CCO)CCCOc1ccc2c(Nc3cc(CC(=O)Nc4cccc(F)c4)[nH]n3)ncnc2c1 [AZD2811] + C[C@@H]1COCCN1C2=NC(=NC(=C2)C3(CC3)[S@](=N)(=O)C)C4=C5C=CNC5=NC=C4 [AZD6738] (first compound max 1 µM, 7x7, partner max 10 µM)	-0.0815	1	0.921	0.613	0.481	0.308	0.851	0.706	0.566	0.677	0.804	0.633	0.733	0.172	0.656	0.428	0.46	0.901
Cc1c2c(nn1C)CSCc1cc(n(C)n1)CSc1cc(c3ccccc3c1)OCCCc1c(C(=O)O)n(C)c3c-2c(Cl)ccc13 [AZD5991] + C[C@@H]1COCCN1C2=NC(=NC(=C2)C3(CC3)[S@](=N)(=O)C)C4=C5C=CNC5=NC=C4 [AZD6738] (first compound max 1 µM, 7x7, partner max 10 µM)	0.013	1	1	0.756	0.584	0.707	0.874	0.969	1	0.491	1	0.865	0.928	0.265	0.746	0.549	0.506	0.895
CN(CCO)CC[C@H](CSc1ccccc1)Nc1ccc(S(=O)(=O)NC(=O)c2ccc(N3CCC([C@@H](O)c4ccccc4-c4ccc(Cl)cc4)CC3)cc2)cc1S(=O)(=O)C(F)(F)F [AZD4320] + C1CN(CCC1(C(=O)N[C@@H](CCO)C2=CC=C(C=C2)Cl)N)C3=NC=NC4=C3C=CN4 [Capivasertib] (first compound max 1 µM, 7x7, partner max 3 µM)	-0.0454	0.715	0.35	0.257	0.264	0.255	0.16	0.387	0.383	0.271	0.86	0.735	0.373	0.486	0.246	0.452	0.271	0.97
CN(C)CCCOc1ccc(-c2ccc3ncc4c(c3c2)n(C2CCOCC2)c(=O)n4C)cn1 [AZD0156] + C=CCn1c(=O)c2cnc(Nc3ccc(N4CCN(C)CC4)cc3)nc2n1-c1cccc(C(C)(C)O)n1 [AZD1775] (first compound max 1 µM, partner max 1 µM)	-0.0576	1	0.999	0.442	0.363	0.331	0.781	0.587	0.661	0.526	0.664	0.587	0.618	0.161	0.442	0.443	0.422	0.945
C=CCn1c(=O)c2cnc(Nc3ccc(N4CCN(C)CC4)cc3)nc2n1-c1cccc(C(C)(C)O)n1 [AZD1775] + O=C(c1cc(Cc2n[nH]c(=O)c3ccccc23)ccc1F)N1CCN(C(=O)C2CC2)CC1 [Olaparib] (first compound max 1 µM, partner max 10 µM)	-0.105	1	0.998	0.438	0.394	0.32	0.84	0.606	0.645	0.548	0.874	0.702	0.41	0.253	0.621	0.465	0.521	0.898
Cc1c2c(nn1C)CSCc1cc(n(C)n1)CSc1cc(c3ccccc3c1)OCCCc1c(C(=O)O)n(C)c3c-2c(Cl)ccc13 [AZD5991] + Cc1cc2ncnn2cc1Nc1ncc2c(n1)n(C1CCOCC1)c(=O)n2C [AZD7648] (first compound max 1 µM, 7x7, partner max 10 µM)	-0.0432	0.925	1	0.198	0.402	0.509	0.328	0.885	1	0.329	0.988	0.892	0.384	0.255	0.456	0.232	0.223	0.204
CN(CCO)CC[C@H](CSc1ccccc1)Nc1ccc(S(=O)(=O)NC(=O)c2ccc(N3CCC([C@@H](O)c4ccccc4-c4ccc(Cl)cc4)CC3)cc2)cc1S(=O)(=O)C(F)(F)F [AZD4320] + CN(C)CCCOc1ccc(-c2ccc3ncc4c(c3c2)n(C2CCOCC2)c(=O)n4C)cn1 [AZD0156] (first compound max 1 µM, 7x7, partner max 1 µM)	-0.0254	0.656	0.17	0.284	0.29	0.192	0.119	0.219	0.445	0.136	0.622	0.55	0.322	0.164	0.163	0.252	0.233	0.998
Cc1c2c(nn1C)CSCc1cc(n(C)n1)CSc1cc(c3ccccc3c1)OCCCc1c(C(=O)O)n(C)c3c-2c(Cl)ccc13 [AZD5991] + Cn1cnc2c(F)c(Nc3ccc(Br)cc3Cl)c(C(=O)NOCCO)cc21 [Selumetinib] (first compound max 1 µM, 7x7, partner max 3 µM)	-0.0194	0.888	1	1	0.584	0.689	0.394	1	1	0.251	0.971	0.844	0.304	0.449	0.225	0.705	0.547	0.114
CC1(C)CCC(CN2CCN(c3ccc(C(=O)NS(=O)(=O)c4ccc(NCC5CCOCC5)c([N+](=O)[O-])c4)c(Oc4cnc5[nH]ccc5c4)c3)CC2)=C(c2ccc(Cl)cc2)C1 [Venetoclax] + CN(C)CCCOc1ccc(-c2ccc3ncc4c(c3c2)n(C2CCOCC2)c(=O)n4C)cn1 [AZD0156] (first compound max 1 µM, 7x7, partner max 1 µM)	-0.0658	0.402	0.555	0.413	0.136	0.292	0.054	0.217	0.235	0.217	0.178	0.267	0.228	0.16	0.766	0.281	0.0973	0.969
COc1cccc(OCCCN)c1-c1cc(Nc2cnc(C#N)cn2)n[nH]1 [Prexasertib] + C[C@@H]1COCCN1C2=NC(=NC(=C2)C3(CC3)[S@](=N)(=O)C)C4=C5C=CNC5=NC=C4 [AZD6738] (first compound max 1 µM, 7x7, partner max 10 µM)	-0.0225	1	0.996	0.735	0.477	0.216	0.939	0.853	0.971	0.866	0.694	0.847	0.789	0.244	0.762	0.646	0.704	0.901
CC1(C)CCC(CN2CCN(c3ccc(C(=O)NS(=O)(=O)c4ccc(NCC5CCOCC5)c([N+](=O)[O-])c4)c(Oc4cnc5[nH]ccc5c4)c3)CC2)=C(c2ccc(Cl)cc2)C1 [Venetoclax] + COc1cc(Nc2ncc3c(n2)-c2ccc(Cl)cc2C(c2c(F)cccc2OC)=NC3)ccc1C(=O)O [Alisertib] (first compound max 1 µM, 7x7, partner max 10 µM)	-0.058	0.901	0.943	0.487	0.438	0.443	0.787	0.358	0.939	0.669	0.948	0.58	0.544	0.0752	0.942	0.401	0.656	1
CC(=O)Nc1cccc(-n2c(=O)n(C3CC3)c(=O)c3c(Nc4ccc(I)cc4F)n(C)c(=O)c(C)c32)c1 [Trametinib] + Cc1nc(-c2cn3c(n2)-c2ccc(-c4cnn(C(C)(C)C(N)=O)c4)cc2OCC3)n(C(C)C)n1 [Taselisib] (first compound max 1 µM, 7x7, partner max 10 µM)	0.0732	0.74	0.546	1	0.975	0.969	0.523	1	0.532	0.674	1	1	0.985	0.638	0.703	0.997	0.785	0.169
C=CCn1c(=O)c2cnc(Nc3ccc(N4CCN(C)CC4)cc3)nc2n1-c1cccc(C(C)(C)O)n1 [AZD1775] + C[C@@H]1COCCN1C2=NC(=NC(=C2)C3(CC3)[S@](=N)(=O)C)C4=C5C=CNC5=NC=C4 [AZD6738] (first compound max 1 µM, partner max 10 µM)	-0.0495	1	1	0.73	0.669	0.42	0.901	0.777	0.832	0.854	0.886	0.833	0.852	0.213	0.889	0.725	0.822	0.94
